Data set [1] deals with T1, Purine nucleoside phosphorylase (Homo sapiens, UniProt P00491).
T1 sequence (P00491 whole entry): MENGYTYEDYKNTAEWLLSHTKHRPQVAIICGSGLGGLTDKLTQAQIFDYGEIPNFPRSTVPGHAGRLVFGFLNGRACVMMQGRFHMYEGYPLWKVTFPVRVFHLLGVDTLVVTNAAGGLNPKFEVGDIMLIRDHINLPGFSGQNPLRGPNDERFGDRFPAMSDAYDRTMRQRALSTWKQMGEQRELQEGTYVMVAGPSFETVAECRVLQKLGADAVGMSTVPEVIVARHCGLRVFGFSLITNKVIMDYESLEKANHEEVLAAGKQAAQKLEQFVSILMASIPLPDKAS
Briefly: Binding affinity to human PNP.

Data set [2] concerns the target T2, Purine nucleoside phosphorylase (Homo sapiens) (UniProt P00491).
T2 sequence (whole entry): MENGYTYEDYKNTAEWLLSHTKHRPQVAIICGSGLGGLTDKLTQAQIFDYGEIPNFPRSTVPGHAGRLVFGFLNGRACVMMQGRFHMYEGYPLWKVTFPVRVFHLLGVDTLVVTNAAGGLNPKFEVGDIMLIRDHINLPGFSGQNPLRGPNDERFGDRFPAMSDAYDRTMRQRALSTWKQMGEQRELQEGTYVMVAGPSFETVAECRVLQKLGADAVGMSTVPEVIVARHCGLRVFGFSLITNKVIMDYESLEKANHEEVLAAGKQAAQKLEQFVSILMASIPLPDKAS
The experiment in a line: Binding affinity to human PNP assessed as kinetic isotope effect. Particulars: tested as the 3H-labelled form.

Substrate in data set [3]: O=c1[nH]cnc2c1ncn2[C@@H]1O[C@H](CO)[C@@H](O)[C@H]1O
The experiment in a line: Activity at human PNP.

`[3H]C(O)[C@H]1CN(Cc2c[nH]c3c(=O)[nH]cnc23)C[C@@H]1O` (stereo partly drawn) returned a Kd in data set [1] of 8.5 pM. Take `O=c1[nH]cnc2c1ncn2[C@@H]1O[C@H](CO)[C@@H](O)[C@H]1O`: the Activity in data set [2] is 4.7%.

B1: Purine nucleoside phosphorylase (Homo sapiens), P00491 (protein)
chain: MENGYTYEDYKNTAEWLLSHTKHRPQVAIICGSGLGGLTDKLTQAQIFDYGEIPNFPRSTVPGHAGRLVFGFLNGRACVMMQGRFHMYEGYPLWKVTFPVRVFHLLGVDTLVVTNAAGGLNPKFEVGDIMLIRDHINLPGFSGQNPLRGPNDERFGDRFPAMSDAYDRTMRQRALSTWKQMGEQRELQEGTYVMVAGPSFETVAECRVLQKLGADAVGMSTVPEVIVARHCGLRVFGFSLITNKVIMDYESLEKANHEEVLAAGKQAAQKLEQFVSILMASIPLPDKAS
As for B1, the Km in data set [3] is 40 µM.

The Kd is the free concentration of one partner at which half of the binding sites on the other are occupied at equilibrium, for simple one-to-one binding. Low values mean tighter binding, high ones weaker binding. One may read the Km as the concentration of substrate that gives half-maximal velocity.

The values above are taken from ChEMBL document CHEMBL1212725, “Enzymatic transition states and dynamic motion in barrier crossing” (Nat Chem Biol, 2009).
